Data: ChEMBL document CHEMBL1201862, “PubChem BioAssay data set” (2004)
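Values below derive from 48-hour exposures of cells grown in 96-well plates, with endpoints linearly interpolated between the two concentrations bracketing the appropriate inhibition level. The concentration for 50% growth inhibition is given as GI50.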 Calls of active or inactive are those of the source. No stated cut-off is given here; in the data, active = GI50 up to about 1.1 µM and inactive = higher.

Key:
Experiment in all cases: inhibition of tumour cell growth, NCI panel, 48 h
[1] = test system: HT-29
[2] = test system: SNB-75
[3] = test system: EKVX
[4] = test system: SK-MEL-28
[5] = test system: M14
[6] = test system: NCI/ADR-RES
[7] = test system: UACC-62
[8] = test system: MDA-MB-231
[9] = test system: PC-3
[10] = test system: SK-MEL-5
[11] = test system: ACHN
[12] = test system: LOX IMVI
[13] = test system: HCT-15
[14] = test system: 786-0
[15] = test system: CCRF-CEM
[16] = test system: RPMI-8226
[17] = test system: MCF7
[18] = test system: NCI-H23
[19] = test system: IGROV-1
[20] = test system: KM12

Compound	GI50 [1]	GI50 [2]	GI50 [3]	GI50 [4]	GI50 [5]	GI50 [6]	GI50 [7]	GI50 [8]	GI50 [9]	GI50 [10]	GI50 [11]	GI50 [12]	GI50 [13]	GI50 [14]	GI50 [15]	GI50 [16]	GI50 [17]	GI50 [18]	GI50 [19]	GI50 [20]
COc1cc(C2c3cc4c(cc3OC3(OC)COC(=O)C23)OCO4)cc(OC)c1OC (stereo not given)	0.274 µM (active)	0.311 µM (active)	0.343 µM (active)	0.4 µM (active)	0.272 µM (active)	0.128 µM (active)	0.311 µM (active)	0.29 µM (active)	0.285 µM (active)	0.292 µM (active)	0.618 µM (active)	0.188 µM (active)	0.286 µM	0.353 µM (active)	0.305 µM (active)	0.284 µM (active)	0.292 µM (active)	0.389 µM (active)	0.425 µM (active)	0.129 µM (active)
CNC(=O)Nc1cc2c3c(c1)CCCN3CCC2	> 10 µM (inactive)	> 10 µM (inactive)	> 10 µM (inactive)	> 10 µM (inactive)	> 10 µM (inactive)	> 10 µM (inactive)	> 10 µM (inactive)	> 10 µM (inactive)	> 10 µM (inactive)	> 10 µM (inactive)	> 10 µM (inactive)	> 10 µM (inactive)	> 10 µM	> 10 µM (inactive)	> 10 µM (inactive)	> 10 µM (inactive)	> 10 µM (inactive)	> 10 µM (inactive)	> 10 µM (inactive)	> 10 µM (inactive)
O=C1/C(=C/c2ccc(OC(=O)c3ccc(Cl)cc3)cc2)CCC/C1=C\c1ccc(OC(=O)c2ccc(Cl)cc2)cc1	> 100 µM (inactive)	21 µM (inactive)	> 100 µM (inactive)	> 100 µM (inactive)	> 100 µM (inactive)	> 100 µM (inactive)	> 100 µM (inactive)	46.5 µM (inactive)	> 100 µM (inactive)	> 100 µM (inactive)	> 100 µM (inactive)	> 100 µM (inactive)	> 100 µM	55 µM (inactive)	> 100 µM (inactive)	> 100 µM (inactive)	> 100 µM (inactive)	> 100 µM (inactive)	> 100 µM (inactive)	> 100 µM (inactive)
CN(C)CCNc1ccc2c(=O)n(CCN(C)C)c(=O)n3c4ccc([N+](=O)[O-])cc4c(=O)c1c23	0.0946 µM (active)	0.293 µM (active)	0.55 µM (active)	1.04 µM (active)	1 µM (active)	0.251 µM (active)	1.24 µM (inactive)	0.429 µM (active)	0.482 µM (active)	1.04 µM (active)	0.146 µM (active)	0.178 µM (active)	0.0966 µM	0.294 µM (active)	0.0382 µM (active)	0.163 µM (active)	0.0716 µM (active)	0.177 µM (active)	0.126 µM (active)	0.518 µM (active)
C=CC(C)(C)c1c(OC)oc2ccc(OC)c(C)c2c1=O	96.4 µM (inactive)	89.5 µM (inactive)	> 100 µM (inactive)	> 100 µM (inactive)	> 100 µM (inactive)	96.8 µM (inactive)	> 100 µM (inactive)	> 100 µM (inactive)	78.7 µM (inactive)	61.7 µM (inactive)	> 100 µM (inactive)	> 100 µM (inactive)	98.2 µM	> 100 µM (inactive)	> 100 µM (inactive)	> 100 µM (inactive)	> 100 µM (inactive)	> 100 µM (inactive)	> 100 µM (inactive)	> 100 µM (inactive)
CC(=O)OC1=CC2=CC[C@H]3[C@@H]4CCC(=O)[C@@]4(C)CC(=O)[C@]3(S)[C@@]2(C)CC1	> 100 µM (inactive)	40.5 µM (inactive)	> 100 µM (inactive)	55 µM (inactive)	36.9 µM (inactive)	75.7 µM (inactive)	26.1 µM (inactive)	26 µM (inactive)	32.9 µM (inactive)	31.6 µM (inactive)	34.2 µM (inactive)	18.8 µM (inactive)	34.2 µM	27.8 µM (inactive)	29 µM (inactive)	20.9 µM (inactive)	30.6 µM (inactive)	36.6 µM (inactive)	27 µM (inactive)	26.3 µM (inactive)
O=C1CC(NCc2ccccc2)c2c(Cl)sc(Cl)c21 (stereo not given)	28.2 µM (inactive)	29.8 µM (inactive)	37.5 µM (inactive)	28.1 µM (inactive)	21.8 µM (inactive)	28.1 µM (inactive)	5.01 µM (inactive)	27.1 µM (inactive)	17.3 µM (inactive)	27 µM (inactive)	22.3 µM (inactive)	5.05 µM (inactive)	20.1 µM	17.1 µM (inactive)	2.54 µM (inactive)	2.26 µM (inactive)	14 µM (inactive)	17.4 µM (inactive)	26.1 µM (inactive)	29.9 µM (inactive)
